Consider 16 compounds from patent US20130065962A1, “Compounds For Use In The Treatment Of Diseases” (INOXIA LIFESCIENCES GMBH, priority 2010, published 2013).

Like-named read-outs stand apart in the source and are kept apart here.

What all share (assay type): biochemical
Test [1] has as its target T1, eosinophil peroxidase (EPO) (Homo sapiens, UniProt P11678).
T1 construct: 20 nM of EPO
T1 sequence (P11678 140-715): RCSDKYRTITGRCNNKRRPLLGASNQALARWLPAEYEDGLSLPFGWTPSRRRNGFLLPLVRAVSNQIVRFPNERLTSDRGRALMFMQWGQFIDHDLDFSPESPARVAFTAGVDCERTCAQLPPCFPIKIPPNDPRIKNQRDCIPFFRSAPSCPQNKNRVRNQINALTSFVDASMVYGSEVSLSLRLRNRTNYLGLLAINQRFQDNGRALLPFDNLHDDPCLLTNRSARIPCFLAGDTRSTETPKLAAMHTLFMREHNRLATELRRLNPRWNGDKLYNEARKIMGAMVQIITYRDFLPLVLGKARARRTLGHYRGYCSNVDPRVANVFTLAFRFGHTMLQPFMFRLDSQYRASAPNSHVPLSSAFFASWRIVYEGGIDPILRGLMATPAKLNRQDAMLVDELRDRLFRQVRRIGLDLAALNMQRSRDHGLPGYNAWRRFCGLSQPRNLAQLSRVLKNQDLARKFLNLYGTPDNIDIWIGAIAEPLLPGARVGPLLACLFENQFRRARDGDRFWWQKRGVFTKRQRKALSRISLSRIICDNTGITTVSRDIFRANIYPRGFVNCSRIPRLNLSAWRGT
Nature of the test: EPO bromination activity, monochlorodimedon (MCD) assay. The method, then: In order to test to what extent the substances according to the invention are able to inhibit EPO, the substances were tested for their inhibitory potential. […] In that, IC50 is that inhibitor concentration, which is required to inhibit an enzyme, here EPO, by 50%. This concentration is determined UV/Vis spectrophotometrically at 290 nm in the steady-state with a monochlorodimedon (MCD) assay.
Eosinophil peroxidase forms a multiplicity of different enzyme intermediates and is able to catalyze a high number of redox reactions. The physiological role of EPO is the oxidation of bromide or thiocyanate, respectively, to hypobromous acid or hypothiocyanate, respectively (also called halogenation cycle). And it is exactly this reaction that has to be inhibited. In the presence of phenolic substances, however, the enzyme can also undergo the so-called peroxidase cycle.
In order to determine the properties of the substances according to the invention to be inhibited, a method was used, in which the bromination activity is examined.
The extent of inhibition of the physiological bromide oxidation was photometrically determined using monochlorodimedon. The halogenation rate (initial inclination of the curve at 290 nm) with inhibitor was related to a blind value (without inhibitor), and therefrom the inactivation rate (in %) was determined. This was entered into a diagram (y-axis) opposite the inhibitor concentration (x-axis), and from the hyperbolic fit of the curve, the IC50 value for each inhibitor was determined.
100 mM of phosphate buffer, pH 7.0
100 μM of monochlorodimedon

The target of a further test is lactoperoxidase (LPO) (UniProt P80025). The experiment in a line: LPO + Br halogenation inhibition (MCD assay). As to conditions: bromide as substrate.
Test [2] deals with T2, myeloperoxidase (MPO) (Homo sapiens, UniProt P05164).
T2 sequence (P05164 49-745): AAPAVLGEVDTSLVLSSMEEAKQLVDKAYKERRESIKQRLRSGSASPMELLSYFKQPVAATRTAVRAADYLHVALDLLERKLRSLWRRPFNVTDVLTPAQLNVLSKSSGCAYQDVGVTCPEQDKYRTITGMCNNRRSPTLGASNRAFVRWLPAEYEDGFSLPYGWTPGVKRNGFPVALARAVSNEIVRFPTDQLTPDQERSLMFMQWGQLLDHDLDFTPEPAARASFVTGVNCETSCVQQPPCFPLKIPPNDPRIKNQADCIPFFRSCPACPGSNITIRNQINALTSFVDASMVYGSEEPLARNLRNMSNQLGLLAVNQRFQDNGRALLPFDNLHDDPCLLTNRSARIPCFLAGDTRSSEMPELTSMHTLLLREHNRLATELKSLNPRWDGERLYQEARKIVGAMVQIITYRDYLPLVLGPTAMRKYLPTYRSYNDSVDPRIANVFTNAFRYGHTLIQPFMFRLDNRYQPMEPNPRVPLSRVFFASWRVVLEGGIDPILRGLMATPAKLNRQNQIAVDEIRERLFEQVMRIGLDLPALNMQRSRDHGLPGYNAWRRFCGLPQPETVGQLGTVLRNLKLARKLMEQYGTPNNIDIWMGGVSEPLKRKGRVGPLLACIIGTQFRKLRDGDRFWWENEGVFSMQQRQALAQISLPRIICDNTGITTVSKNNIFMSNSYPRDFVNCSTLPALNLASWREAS
The experiment in a line: MPO + Br halogenation inhibition (MCD assay). The settings on record: bromide as substrate.

For test [3], the target named is T2, myeloperoxidase (MPO). The experiment in a line: MPO + Cl halogenation inhibition (MCD assay). As to conditions: chloride as substrate.
Setting [4] is: bromide oxidation, MCD assay at 290 nm, 100 mM bromide, 20 nM EPO, pH 7.0, read-out: IC50 EPO + Br.
Setting [5] is: Example 3, same protocol as Example 1, read-out: IC50 EPO/Br.
[6] abbreviates: Example 2, tests performed as in Example 1, read-out: IC50 value (EPO).

Regarding `NNC(=O)CNc1ccc(F)cc1F` [(7), 2,4-di-fluoro-phenylaminoethane-hydrazide], the IC50 in test [1] (setting [4]) came to 34 nM; at lactoperoxidase (LPO) it was 322 nM; on myeloperoxidase (MPO) [2], 2040 nM; at myeloperoxidase (MPO) [3], 6550 nM.
In the case of `NNC(=O)COc1ccccc1Br` [PD17, 2-(2-bromophenoxy)acetohydrazide], the IC50 in test [1] (setting [5]) was found to be 3900 nM.
On the same count and under the same terms, for `O=C(O)CNc1ccc(Cl)cc1` [PD02, 2-[(4-chlorophenyl)amino]acetic acid] the value was 200 nM.
Regarding `NNC(=O)CNc1ccccc1F` [(3), 2-fluoro-phenylaminoethane-hydrazide], the IC50 is 9 nM in test [1] (setting [4]), 100 nM on lactoperoxidase (LPO), 1900 nM at myeloperoxidase (MPO) [2] and 8800 nM at myeloperoxidase (MPO) [3]. The “fold potential relative to compound (6) (EPO IC50)” value in test [1] (compound (3) compared with non-halogenated compound (6)) is reported as above 200 fold.
With `CC(C)NNC(=O)c1ccncc1` [iproniazide, N′-isopropylisonicotinohydrazide, reference compound], the IC50 in test [1] (setting [6]) is above 500000 nM.
On to `NNC(=O)CCc1ccccc1O` [PD20, 3-(2-hydroxyphenyl)propanohydrazide], for which the IC50 in test [1] (setting [5]) was 3100 nM.
The same measure, in the same setting: for `O=C(O)CNc1ccccc1F` [PD01, N-(2-fluorophenyl)glycin] the value was 1000 nM.
Regarding `NNC(=O)CNc1ccccc1` [Compound (6), phenylaminoethane-hydrazide], the IC50 worked out at 2290 nM in test [1] (setting [4]), 4970 nM at lactoperoxidase (LPO), 84600 nM at myeloperoxidase (MPO) [2] and 46000 nM on myeloperoxidase (MPO) [3].
The like results for `Cc1ccc(NCC(=O)NN)cc1` [(8), 4-methyl-phenylaminoethane-hydrazide] were, in that order, 2270 nM, 2770 nM, 29400 nM and 32200 nM.
The like results for `NNC(=O)CNc1cccc(Br)c1` [(5), 3-bromo-phenylaminoethane-hydrazide] were, in that order, 17 nM, 40 nM, 1600 nM and 3700 nM.
The like results for `NNC(=O)CNc1ccc(Cl)cc1` [(2), 4-chloro-phenylaminoethane-hydrazide] were, in that order, 24 nM, 30 nM, 1200 nM and 1970 nM.
For the compound `NNC(=O)CSc1ccc(Cl)cc1` [PD06, 2-[(4-chlorophenyl)sulfanyl]acetohydrazide], the IC50 in test [1] (setting [5]) is 1200 nM.
Turning to `NNC(=O)CNc1ccc(F)cc1` [(1), 4-fluoro-phenylaminoethane-hydrazide], the IC50 in test [1] (setting [4]) was found to be 240 nM; at lactoperoxidase (LPO) it was 540 nM; on myeloperoxidase (MPO) [2] it was 4120 nM; on myeloperoxidase (MPO) [3], 5430 nM.
For the compound `NNC(=O)CNc1ccc(F)c(Cl)c1` [(4), 4-fluoro-3-chloro-phenylaminoethane-hydrazide], the IC50 in test [1] (setting [4]) was found to be 19 nM; at lactoperoxidase (LPO), 140 nM; on myeloperoxidase (MPO) [2] it was 547 nM; on myeloperoxidase (MPO) [3] it was 2400 nM.
On to `NNC(=O)COc1ccc(F)cc1` [PD09, 2-(4-fluorophenoxy)acetohydrazide], for which the IC50 in test [1] (setting [5]) turned out to be 2700 nM.
With `NNC(=O)c1ccncc1` [isoniazide, pyridine-4-carbohydrazide, reference compound], in test [1] (setting [6]), the IC50 was determined as 6040 nM.
